This assay addresses Isocitrate dehydrogenase [NADP] cytoplasmic (Homo sapiens, UniProt O75874, R132H). Kind of assay: Inhibition of IDH1 R132H mutant (unknown origin) using alpha-ketoglutarate and NADPH incubated for 60 mins by fluorescence based assay.

Some results are limits rather than exact numbers.

Isocitrate dehydrogenase [NADP] cytoplasmic, sequence (O75874 2-414 R132H limits assumed): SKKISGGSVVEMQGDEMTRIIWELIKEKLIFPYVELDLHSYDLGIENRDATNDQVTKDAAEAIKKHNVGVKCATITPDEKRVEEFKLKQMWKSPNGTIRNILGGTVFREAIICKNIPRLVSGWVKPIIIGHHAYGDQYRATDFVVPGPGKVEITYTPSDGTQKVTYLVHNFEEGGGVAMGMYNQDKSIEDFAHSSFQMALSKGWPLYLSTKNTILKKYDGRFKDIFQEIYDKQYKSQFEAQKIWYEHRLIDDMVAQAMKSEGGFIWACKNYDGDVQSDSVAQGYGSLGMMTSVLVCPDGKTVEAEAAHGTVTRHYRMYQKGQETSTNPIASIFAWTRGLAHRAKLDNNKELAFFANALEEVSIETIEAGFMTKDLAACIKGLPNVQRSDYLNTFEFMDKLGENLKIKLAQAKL

In the case of `CC(C)CCOc1nc(N2C[C@@H]3[C@H](C2)[C@H]3C(=O)O)ccc1C(=O)N[C@H](C)c1ccccc1`, the concentration for half-maximal inhibition (IC50) turned out to be 5.4 µM.

For `Cc1cc(Cl)ccc1COc1nc(N2CCC[C@@H](CC(=O)O)C2)ccc1C(=O)NC1CCCCC1`, inhibition was half-maximal at 38 µM (IC50).

Regarding `O=C(O)C[C@@H]1CCCN(c2ccc(C(=O)NC3CCCCC3)c(NCc3ccccc3)n2)C1`, the concentration for half-maximal inhibition (IC50) was above 50 µM.

As for `CC(C)CCOc1nc(N2C[C@@H]3[C@H](C2)[C@H]3C(=O)O)ccc1C(=O)NC1CCCCC1`, the half-inhibitory concentration (IC50) came to 7.9 µM.

`CC(C)CCOc1nc(-c2ccc(C(=O)O)cc2)ccc1C(=O)NC1C2CC3CC1CC(O)(C3)C2` (stereo unspecified): the midpoint of inhibition, the IC50, lay at 3 µM.

Take `CC(C)CCOc1nc(N2C[C@@H]3[C@H](C2)[C@H]3C(=O)O)ccc1C(=O)NC1CCC(O)CC1` (stereo partly specified): the midpoint of inhibition, the IC50, lay at 8.2 µM.

For `COCCOc1nc(N2CCC[C@@H](CC(=O)O)C2)ccc1C(=O)NC1CCCCC1`, the IC50 is above 50 µM.

For the molecule `O=C(NC1C2CC3CC1CC(O)(C3)C2)c1ccc(N2C[C@@H]3[C@H](C2)[C@H]3C(=O)O)nc1OCc1ccccc1Cl` (stereo partly specified), the IC50 stood at 3.2 µM.

The molecule `CC(C)CCOc1nc(N2C[C@@H]3[C@H](C2)[C@H]3C(=O)O)ccc1C(=O)N(C)C1CCCCC1` registered an IC50 of 17 µM.

As to `O=C(O)C[C@@H]1CCCN(c2ccc(C(=O)NC3CCCCC3)c(OCC3CC3)n2)C1`, the IC50 amounted to 30 µM.

Take `Cc1ccccc1COc1nc(N2C[C@@H]3[C@H](C2)[C@H]3C(=O)O)ccc1C(=O)NC1C2CC3CC1CC(O)(C3)C2` (stereo partly specified): the IC50 was determined as 4.5 µM.

In turn, `CC(C)CCSc1nc(N2CCC[C@@H](CC(=O)O)C2)ccc1C(=O)NC1CCCCC1` showed a half-maximal inhibitory concentration (IC50) of 10 µM.

In turn, `O=C(O)C[C@@H]1CCCN(c2ccc(C(=O)NC3CCCCC3)c(OCC3CCC3)n2)C1` registered a concentration for half-maximal inhibition (IC50) of 20 µM.

The molecule `O=C(O)C[C@@H]1CCCN(c2ccc(C(=O)NC3CCCCC3)c(OCC3CCCCC3)n2)C1` displayed an IC50 of 9.7 µM.

`CCOC(=O)[C@H]1[C@@H]2CN(c3ccc(C(=O)NC4C5CC6CC4CC(O)(C6)C5)c(OCCC(C)C)n3)C[C@@H]21` (stereo partly specified): it took 13.5 µM to reach half-maximal inhibition (IC50).

`C[C@H](Oc1nc(N2CCC[C@@H](CC(=O)O)C2)ccc1C(=O)NC1CCCCC1)c1ccccc1`: the IC50 stood at 11 µM.

Turning to `CC(C)CCOc1nc(N2C[C@@H]3[C@H](C2)[C@H]3C(=O)O)ccc1C(=O)Nc1cccc(B(O)O)c1`, the IC50 worked out at 4.6 µM.

Turning to `O=C(O)C[C@@H]1CCCN(c2ccc(C(=O)NC3CCCCC3)c(NC3CCCC3)n2)C1`, the IC50 was above 50 µM.

In the case of `CCC(C)COc1nc(N2CCC[C@@H](CC(=O)O)C2)ccc1C(=O)NC1CCCCC1` (stereo partly specified), the IC50 amounted to 16 µM.

For the molecule `CC(C)CCOc1nc(N2CCC[C@@H](CC(=O)O)C2)ccc1C(=O)NC1CCCCC1`, the midpoint of inhibition, the IC50, lay at 6.4 µM.

With `CC(C)CCOc1nc(N2C[C@@H]3[C@H](C2)[C@H]3C(=O)O)ccc1C(=O)Nc1cccc(CO)c1`, the IC50 worked out at 3.2 µM.

Molecule `Cc1ccccc1[C@@H](C)Oc1nc(N2CCC[C@@H](CC(=O)O)C2)ccc1C(=O)NC1CCCCC1` had an IC50 of 5.8 µM.

The molecule `O=C(O)C[C@@H]1CCCN(c2ccc(C(=O)NC3CCCCC3)c(OC3CCOCC3)n2)C1` showed an IC50 above 50 µM.

Consider `CC(C)CCOc1nc(Nc2coc(C(=O)O)n2)ccc1C(=O)NC1C2CC3CC1CC(O)(C3)C2` (stereo unspecified), for which the half-inhibitory concentration (IC50) worked out at 21 µM.

In the case of `CC(C)CCOc1nc(N2C[C@@H]3[C@H](C2)[C@H]3C(=O)O)ccc1C(=O)Nc1cccc(NS(C)(=O)=O)c1`, the concentration for half-maximal inhibition (IC50) amounted to 5.4 µM.

As for `CC(C)COc1nc(N2CCC[C@@H](CC(=O)O)C2)ccc1C(=O)NC1CCCCC1`, the IC50 came to 26 µM.

Regarding `CC(C)CCOc1nc(N2C[C@@H]3[C@H](C2)[C@H]3C(=O)O)ccc1C(=O)NC[C@@H](O)c1ccccc1`, it took 3.1 µM to reach half-maximal inhibition (IC50).

`CC(C)CCOc1nc(N2C[C@@H]3[C@H](C2)[C@H]3C(=O)O)ccc1C(=O)NC1CC2CCC1C2` (stereo partly specified) yielded a concentration for half-maximal inhibition (IC50) of 14 µM.

Take `CC(C)CCOc1nc(N2C[C@@H]3[C@H](C2)[C@H]3C(=O)O)ccc1C(=O)Nc1cccc(C(N)=O)c1`: the 50% inhibitory concentration (IC50) was found to be 6 µM.

Regarding `COC12CC3CC(C1)C(NC(=O)c1ccc(N4C[C@@H]5[C@H](C4)[C@H]5C(=O)O)nc1OCCC(C)C)C(C3)C2` (stereo partly specified), the concentration for half-maximal inhibition (IC50) was determined as 0.27 µM.

Regarding `O=C(O)C[C@@H]1CCCN(c2ccc(C(=O)NC3CCCCC3)c(OC3CCCC3)n2)C1`, it took 12 µM to reach half-maximal inhibition (IC50).

Turning to `CC(C)CCOc1nc(N2C[C@@H]3[C@H](C2)[C@H]3C(=O)O)ccc1C(=O)NC1CCCCCC1`, the IC50 came out at 3.9 µM.

Regarding `Cc1ccc(COc2nc(N3CCC[C@@H](CC(=O)O)C3)ccc2C(=O)NC2CCCCC2)cc1`, the IC50 was above 50 µM.

For the molecule `CC(C)CCOc1nc(N2C[C@@H]3[C@H](C2)[C@H]3C(=O)O)ccc1C(=O)N[C@@H](C)c1ccccc1`, 4.4 µM corresponded to half-maximal inhibition (IC50).

`O=C(O)C[C@@H]1CCCN(c2ccc(C(=O)NC3CCCCC3)c(OCc3cccc(Cl)c3)n2)C1` came in with an IC50 of 9.9 µM.

On to `O=C(O)C[C@@H]1CCCN(c2ccc(C(=O)NC3CCCCC3)c(NCC3CCCCC3)n2)C1`, for which the IC50 was above 50 µM.

Turning to `O=C(O)C[C@@H]1CCCN(c2ccc(C(=O)NC3CCCCC3)c(OC3CCCCC3)n2)C1`, it took 12 µM to reach half-maximal inhibition (IC50).

The molecule `CC(C)CC(C)Oc1nc(N2CCC[C@@H](CC(=O)O)C2)ccc1C(=O)NC1CCCCC1` (stereo partly specified) gave an IC50 of 12 µM.

The molecule `CCOc1nc(N2CCC[C@@H](CC(=O)O)C2)ccc1C(=O)NC1CCCCC1` had a concentration for half-maximal inhibition (IC50) above 50 µM.

In the case of `CC(C)CCOc1nc(N2C[C@@H]3[C@H](C2)[C@H]3C(=O)O)ccc1NC(=O)NC1CCCCC1`, the IC50 was above 50 µM.

The molecule `CC(C)CCOc1nc(N2C[C@@H]3[C@H](C2)[C@H]3C(=O)O)ccc1C(=O)NCc1ccc(O)cc1` showed a 50% inhibitory concentration (IC50) of 6.6 µM.

`CC(C)CCOc1nc(N2CCC(C(=O)O)CC2)ccc1C(=O)NC1C2CC3CC1CC(O)(C3)C2` (stereo unspecified) displayed an IC50 of 3.4 µM.

Turning to `O=C(O)C[C@@H]1CCCN(c2ccc(C(=O)NC3CCCCC3)c(SCc3ccccc3F)n2)C1`, half-maximal inhibition (IC50) required 21 µM.

`CC(C)CCOc1nc(N2C[C@@H]3[C@H](C2)[C@H]3C(=O)O)ccc1C(=O)NCCc1ccccc1`: the IC50 came to 3.9 µM.

`CCCC(C)Oc1nc(N2CCC[C@@H](CC(=O)O)C2)ccc1C(=O)NC1CCCCC1` (stereo partly specified): it took 12 µM to reach half-maximal inhibition (IC50).

Consider `Cc1cccc(COc2nc(N3CCC[C@@H](CC(=O)O)C3)ccc2C(=O)NC2CCCCC2)c1`, for which the half-maximal inhibitory concentration (IC50) came out at 4.6 µM.

With `CC(C)CCNc1nc(N2CCC[C@@H](CC(=O)O)C2)ccc1C(=O)NC1CCCCC1`, the IC50 was above 50 µM.

On to `Cc1ccccc1COc1nc(N2CCC[C@@H](CC(=O)O)C2)ccc1C(=O)NC1C2CC3CC1CC(O)(C3)C2` (stereo partly specified), for which the 50% inhibitory concentration (IC50) turned out to be 0.69 µM.

As to `CC(C)CCOc1nc(Nc2nc(CC(=O)O)cs2)ccc1C(=O)NC1C2CC3CC1CC(O)(C3)C2` (stereo unspecified), the IC50 is above 50 µM.

Molecule `CC(C)CCOc1nc(N2C[C@@H]3[C@H](C2)[C@H]3C(=O)O)ccc1C(=O)NCc1ccncc1` came in with an IC50 of 6.2 µM.

Molecule `CC(C)CCOc1nc(Nc2cccc(C(=O)O)c2)ccc1C(=O)NC1C2CC3CC1CC(O)(C3)C2` (stereo unspecified) showed a concentration for half-maximal inhibition (IC50) of 11 µM.

For the molecule `C[C@@H](Oc1nc(N2CCC[C@@H](CC(=O)O)C2)ccc1C(=O)NC1CCCCC1)c1ccccc1`, the concentration for half-maximal inhibition (IC50) stood at 5.9 µM.

Turning to `CC(C)CCOc1nc(N2C[C@@H]3[C@H](C2)[C@H]3C(=O)O)ccc1C(=O)N(C)Cc1ccccc1`, the IC50 came out at 7.4 µM.

Take `O=C(O)C[C@@H]1CCCN(c2ccc(C(=O)NC3CCCCC3)c(OCc3ccc(Cl)cc3)n2)C1`: the half-maximal inhibitory concentration (IC50) worked out at 7.7 µM.

`CC(C)CCOc1nc(N2C[C@@H]3[C@H](C2)[C@H]3C(=O)O)ccc1C(=O)NC(C)C1C2CC3CC1CC(O)(C3)C2` (stereo partly specified): inhibition was half-maximal at 0.23 µM (IC50).

`O=C(O)C[C@@H]1CCCN(c2ccc(C(=O)NC3CCCCC3)c(OC3CCC3)n2)C1` returned a concentration for half-maximal inhibition (IC50) above 50 µM.

Regarding `CCC(C)Oc1nc(N2CCC[C@@H](CC(=O)O)C2)ccc1C(=O)NC1CCCCC1` (stereo partly specified), the concentration for half-maximal inhibition (IC50) is above 50 µM.

In turn, `O=C(O)C[C@@H]1CCCN(c2ccc(C(=O)NC3CCCCC3)c(OCCCC(F)(F)F)n2)C1` had a concentration for half-maximal inhibition (IC50) of 15 µM.

For the molecule `O=C(O)C[C@@H]1CCCN(c2ccc(C(=O)NC3CCCCC3)c(OCc3cccc(F)c3)n2)C1`, the concentration for half-maximal inhibition (IC50) amounted to 10 µM.

Molecule `CC(C)CCOc1nc(N2CC[C@H](CC(=O)O)C2)ccc1C(=O)NC1C2CC3CC1CC(O)(C3)C2` (stereo partly specified) gave an IC50 of 1.2 µM.

In the case of `O=C(O)C[C@@H]1CCCN(c2ccc(C(=O)NC3C4CC5CC3CC(O)(C5)C4)c(OCc3ccccc3)n2)C1` (stereo partly specified), the concentration for half-maximal inhibition (IC50) was determined as 2.3 µM.

For the molecule `Cc1ccccc1CNc1nc(N2CCC[C@@H](CC(=O)O)C2)ccc1C(=O)NC1CCCCC1`, the IC50 was above 50 µM.

Regarding `Cc1ccccc1CSc1nc(N2CCC[C@@H](CC(=O)O)C2)ccc1C(=O)NC1CCCCC1`, the IC50 was above 50 µM.

Regarding `CC(C)CCOc1nc(N2C[C@@H]3[C@H](C2)[C@H]3C(=O)O)ccc1C(=O)NCc1ccccc1`, the IC50 worked out at 9.4 µM.

Consider `COc1ccccc1COc1nc(N2CCC[C@@H](CC(=O)O)C2)ccc1C(=O)NC1CCCCC1`, for which the midpoint of inhibition, the IC50, lay at 13 µM.

In turn, `O=C(O)C[C@@H]1CCCN(c2ccc(C(=O)NC3CCCCC3)c(OCc3ccc(F)cc3)n2)C1` displayed a half-maximal inhibitory concentration (IC50) of 8.8 µM.

Take `CC(C)CCOc1nc(N2C[C@@H]3[C@H](C2)[C@H]3C(=O)O)ccc1NC(=O)C1CCCCC1`: the IC50 was above 50 µM.

`CC(C)CCOc1nc(N2C[C@@H]3[C@H](C2)[C@H]3C(=O)O)ccc1C(=O)NCc1cccc(O)c1`: 6.3 µM corresponded to half-maximal inhibition (IC50).

In the case of `CC(C)(C)CCOc1nc(N2CCC[C@@H](CC(=O)O)C2)ccc1C(=O)NC1CCCCC1`, the half-maximal inhibitory concentration (IC50) worked out at 7.6 µM.

Molecule `CC(C)CCOc1nc(N2C[C@@H]3[C@H](C2)[C@H]3C(=O)O)ccc1C(=O)N[C@@H](CO)c1ccccc1` had an IC50 of 5.6 µM.

`CC(C)CCOc1nc(N2C[C@@H]3[C@H](C2)[C@H]3C(=O)O)ccc1C(=O)NC[C@H](O)c1ccccc1`: 3 µM corresponded to half-maximal inhibition (IC50).

`CC(C)=CCOc1nc(N2CCC[C@@H](CC(=O)O)C2)ccc1C(=O)NC1CCCCC1` registered an IC50 of 14 µM.

Molecule `CC(C)CCOc1nc(Nc2csc(C(=O)O)n2)ccc1C(=O)NC1C2CC3CC1CC(O)(C3)C2` (stereo unspecified) returned an IC50 of 0.81 µM.

Consider `CCC(C)(C)Oc1nc(N2CCC[C@@H](CC(=O)O)C2)ccc1C(=O)NC1CCCCC1`, for which the 50% inhibitory concentration (IC50) amounted to 14 µM.

On to `Cc1ccccc1COc1nc(N2CCC[C@@H](CC(=O)O)C2)ccc1C(=O)NC1CCCCC1`, for which the IC50 came to 4.5 µM.

Take `CC(C)CCOc1nc(N2C[C@@H]3[C@H](C2)[C@H]3C(=O)O)ccc1C(=O)NC1C2CC3CC(C2)CC1C3` (stereo partly specified): the concentration for half-maximal inhibition (IC50) is above 50 µM.

What is called IC50 is the concentration needed to halve the response being measured. A lower IC50 goes with inhibition by little substance.
